# Measured values published in US9758494B2, “N-(oxazol-2-yl)-aryl-carboxylic acid amides and use thereof as herbicides” (BAYER CROPSCIENCE AG, priority 2012, dated 2017).
# How the values were obtained:
# Format in all cases: in vivo
# [1] = test system: Triticum aestivum (Wheat); assay: Pre-emergence, damage of crop plants
# Text: (§1) Seeds of monocotyledonous and dicotyledonous weed plants and crop plants are laid out in wood-fiber pots in sandy loam and covered with soil. The compounds according to the invention, formulated in the form of wettable powders (WP) or as emulsion concentrates (EC), are then applied to the surface of the soil cover in the form of an aqueous suspension or emulsion at a water application rate equating to 600 to 800 l/ha, with addition of 0.2% wetting agent. After the treatment, the pots are placed in a greenhouse and kept under good growth conditions for the test plants. The damage to the test plants is assessed visually after a test period of 3 weeks by comparison with untreated controls (herbicidal activity in percent (%): 100% activity=the plants have died, 0% activity=like control plants). Here, for example, compounds No. 1-163, 1-171, 1-172, 1-283, 1-284, 1-294, 1-295, 1-334, 10-001 and 11-343, at an application rate of 320 g/ha, have an activity of at least 80% against Veronica persica.
# (§2) In the tables below, the properties of the compounds according to the invention are compared to those of the structurally most similar compounds known from WO 2012/028579 A1. These tests were carried out by the pre- and post-emergence method under the conditions mentioned under item 1 and item 2. Here, the herbicidal activity against various harmful plants and the damage of some important crop plants were compared at different dosages.
# [2] = test system: Brassica napus (Oilseed Rape); assay: Pre-emergence, damage of crop plants
# Text: as §1, §2
# [3] = test system: Oryza sativa (Rice); assay: Pre-emergence, damage of crop plants
# Text: as §1, §2
# [4] = test system: Alopecurus myosuroides; assay: Post-emergence herbicidal action; conditions: Dosage 80/ha (Table P)
# Procedure: (§3) Seeds of monocotyledonous and dicotyledonous weed plants and crop plants are laid out in wood fiber pots in sandy loam, covered with soil and cultivated in a greenhouse under good growth conditions. 2 to 3 weeks after sowing, the test plants are treated at the one-leaf stage. The compounds according to the invention, formulated in the form of wettable powders (WP) or as emulsion concentrates (EC), are then sprayed onto the green parts of the plants in the form of an aqueous suspension or emulsion at a water application rate equating to 600 to 800 l/ha, with addition of 0.2% wetting agent. After the test plants have been left to stand in the greenhouse under optimal growth conditions for about 3 weeks, the action of the preparations is assessed visually in comparison to untreated controls (herbicidal action in percent (%): 100% activity=the plants have died, 0% activity=like control plants). Here, for example, compounds No. 1-163, 1-171, 1-172, 1-173, 1-254, 1-283, 1-284, 1-293, 1-294 and 1-334, at an application rate of 80 g/ha, have an activity of at least 80% against Abutilon theophrasti and Amaranthus retroflexus.
# as §2
# [5] = test system: Lolium multiflorum; assay: Post-emergence herbicidal action
# Procedure: as §3, §2
# [6] = test system: Avena fatua; assay: Post-emergence herbicidal action; conditions: Dosage 80/ha (Table P)
# Procedure: as §3, §2
# [7] = test system: Setaria viridis; assay: Post-emergence herbicidal action
# Procedure: as §3, §2
# [8] = test system: Triticum aestivum (Wheat); assay: Post-emergence, damage of crop plants
# Procedure: as §3, §2
# [9] = test system: Brassica napus (Oilseed Rape); assay: Post-emergence, damage of crop plants
# Procedure: as §3, §2
# [10] = test system: Oryza sativa (Rice); assay: Post-emergence, damage of crop plants
# Procedure: as §3, §2
# [11] = test system: Alopecurus myosuroides; assay: Pre-emergence herbicidal action; conditions: Dosage 320/ha (Table D)
# Text: as §1, §2
# [12] = test system: Lolium multiflorum; assay: Pre-emergence herbicidal action
# Text: as §1, §2
# [13] = test system: Polygonum convolvulus; assay: Pre-emergence herbicidal action
# Text: as §1, §2
# [14] = test system: Abutilon theophrasti; assay: Pre-emergence herbicidal action; conditions: Dosage 320/ha (Table C)
# Text: as §1, §2
# [15] = test system: Echinochloa crus galli; assay: Pre-emergence herbicidal action; conditions: Dosage 320/ha (Table C)
# Text: as §1, §2
# [16] = test system: Amaranthus retroflexus; assay: Pre-emergence herbicidal action; conditions: Dosage 320/ha (Table C)
# Text: as §1, §2
# [17] = test system: Matricaria inodora; assay: Pre-emergence herbicidal action; conditions: Dosage 320/ha (Table C)
# Text: as §1, §2
# [18] = test system: Cyperus serotinus; assay: Post-emergence herbicidal action; conditions: Dosage 80/ha (Table Q)
# Procedure: as §3, §2
# [19] = test system: Zea mays (Corn); assay: Pre-emergence, damage of crop plants; conditions: Dosage 320/ha (Table G)
# Text: as §1, §2
# [20] = test system: Pharbitis purpureum; assay: Post-emergence herbicidal action; conditions: Dosage 20/ha (Table S)
# Procedure: as §3, §2
# [21] = test system: Zea mays (Corn); assay: Post-emergence, damage of crop plants; conditions: Dosage 20/ha (Table S)
# Procedure: as §3, §2
# [22] = test system: Avena fatua; assay: Pre-emergence herbicidal action
# Text: as §1, §2
structure (smiles),measurement,setting,value
Cc1c(C(=O)Nc2ncco2)ccc(S(C)(=O)=O)c1S(C)(=O)=O [1-163],"damage of crop plants, Crop plant TRZAS",[1]; Dosage 320/ha (Table E),0%
same,"damage of crop plants, Crop plant BRSNW",[2]; Dosage 320/ha (Table D),10%
same,"damage of crop plants, Crop plant ORYZA",[3]; Dosage 320/ha (Table E),0%
same,herbicidal activity against harmful plants ALOMY,[4],60%
same,herbicidal activity against harmful plants LOMU,[5]; Dosage 80/ha (Table P),20%
same,herbicidal activity against harmful plants AVEFA,[6],40%
same,herbicidal activity against harmful plants SETVI,[7]; Dosage 80/ha (Table P),100%
same,damage of crop plants TRZAS,[8]; Dosage 20/ha (Table O),20%
same,damage of crop plants BRSNW,[9]; Dosage 20/ha (Table O),40%
same,damage of crop plants ORYZA,[10]; Dosage 20/ha (Table O),0%
same,"herbicidal activity, Harmful plant ALOMY",[11],30%
same,"herbicidal activity, Harmful plant LOLMU",[12]; Dosage 320/ha (Table E),100%
same,"herbicidal activity, Harmful plant POLCO",[13]; Dosage 320/ha (Table E),70%
same,herbicidal activity against harmful plants ABUTH,[14],100%
same,herbicidal activity against harmful plants ECHCG,[15],70%
same,herbicidal activity against harmful plants AMARE,[16],90%
same,herbicidal activity against harmful plants MATIN,[17],100%
CSc1c(C(F)(F)F)ccc(C(=O)Nc2ncco2)c1C [1-171],damage of crop plants TRZAS,[1]; Dosage 80/ha (Table A),0%
same,damage of crop plants TRZAS,[1]; Dosage 80/ha (Table B),0%
same,damage of crop plants BRSNW,[2]; Dosage 80/ha (Table A),30%
same,damage of crop plants BRSNW,[2]; Dosage 80/ha (Table B),30%
same,damage of crop plants ORYZA,[3]; Dosage 80/ha (Table A),0%
same,damage of crop plants ORYZA,[3]; Dosage 80/ha (Table B),0%
same,damage of crop plants TRZAS,[8]; Dosage 80/ha (Table M),0%
same,damage of crop plants TRZAS,[8]; Dosage 80/ha (Table N),0%
same,damage of crop plants BRSNW,[9]; Dosage 80/ha (Table M),0%
same,damage of crop plants BRSNW,[9]; Dosage 80/ha (Table N),0%
same,damage of crop plants ORYZA,[10]; Dosage 80/ha (Table M),0%
same,damage of crop plants ORYZA,[10]; Dosage 80/ha (Table N),0%
C[S+]([O-])c1c(S(C)(=O)=O)ccc(C(=O)Nc2ncco2)c1Cl (stereo not drawn) [1-284],herbicidal activity against harmful plants LOLMU,[5]; Dosage 20/ha (Table R),60%
same,"herbicidal activity, Harmful plants LOLMU",[5]; Dosage 80/ha (Table Q),70%
same,"herbicidal activity, Harmful plants CYPES",[18],60%
same,herbicidal activity against harmful plants SETVI,[7]; Dosage 20/ha (Table R),90%
same,"damage of crop plants, Crop plant ORYZA",[10]; Dosage 80/ha (Table Q),20%
same,herbicidal activity against harmful plants LOLMU,[12]; Dosage 320/ha (Table F),100%
same,herbicidal activity against harmful plants POLCO,[13]; Dosage 320/ha (Table F),70%
C[S+]([O-])c1c(C(F)(F)F)ccc(C(=O)Nc2ncco2)c1Cl (stereo not drawn) [1-294],damage of crop plants BRSNW,[2]; Dosage 320/ha (Table G),20%
same,damage of crop plants ORYZA,[3]; Dosage 320/ha (Table G),30%
same,damage of crop plants ZEAMX,[19],0%
same,"herbicidal activity, Harmful plant PHBPU",[20],70%
same,"damage of crop plants, Crop plants TRZAS",[8]; Dosage 20/ha (Table S),0%
same,"damage of crop plants, Crop plants ORYZA",[10]; Dosage 20/ha (Table S),0%
same,"damage of crop plants, Crop plants ZEAMX",[21],0%
CCS(=O)(=O)c1ccc(C(=O)Nc2nc(C)c(C)o2)c(Cl)c1C1=NOC(CC#N)C1 (stereo not drawn) [11-343],Damage of BRSNW,[9]; 5 g/ha (Table W),0%
same,Damage of BRSNW,[9]; 20 g/ha (Table V),0%
same,Damage of BRSNW,[9]; 20 g/ha (Table W),0%
same,Damage of BRSNW,[9]; 20 g/ha (Table X),0%
same,Damage of BRSNW,[9]; 80 g/ha (Table V),0%
same,Damage of BRSNW,[9]; 80 g/ha (Table X),0%
same,Herbicidal activity against AVEFA,[22]; 20 g/ha (Table K),80%
same,Herbicidal activity against AVEFA,[22]; 20 g/ha (Table L),80%
same,Herbicidal activity against AVEFA,[22]; 80 g/ha (Table J),80%
same,Herbicidal activity against AVEFA,[22]; 80 g/ha (Table K),80%
same,Herbicidal activity against AVEFA,[22]; 80 g/ha (Table L),80%
same,Herbicidal activity against AVEFA,[22]; 320 g/ha (Table J),100%
"Cc1c(C(=O)Nc2nnnn2C)ccc(S(C)(=O)=O)c1S(C)(=O)=O [WO 2012/028579, No. 1-188]",damage of crop plants TRZAS,[8]; Dosage 20/ha (Table O),40%
same,damage of crop plants BRSNW,[9]; Dosage 20/ha (Table O),100%
same,damage of crop plants ORYZA,[10]; Dosage 20/ha (Table O),20%
same,herbicidal activity against harmful plants ABUTH,[14],0%
same,herbicidal activity against harmful plants ECHCG,[15],0%
same,herbicidal activity against harmful plants AMARE,[16],40%
same,herbicidal activity against harmful plants MATIN,[17],40%
"CCS(=O)(=O)c1ccc(C(=O)Nc2ncnn2C)c(Cl)c1C1=NOC(CC#N)C1 (stereo not drawn) [WO 2012/028579, No. 1-267]",Damage of BRSNW,[9]; 20 g/ha (Table V),90%
same,Damage of BRSNW,[9]; 80 g/ha (Table V),90%
same,Herbicidal activity against AVEFA,[22]; 80 g/ha (Table J),0%
same,Herbicidal activity against AVEFA,[22]; 320 g/ha (Table J),0%
"CSc1c(C(F)(F)F)ccc(C(=O)Nc2nnnn2C)c1C [WO 2012/028579, No. 4-135]",damage of crop plants TRZAS,[1]; Dosage 80/ha (Table A),60%
same,damage of crop plants BRSNW,[2]; Dosage 80/ha (Table A),80%
same,damage of crop plants ORYZA,[3]; Dosage 80/ha (Table A),60%
same,damage of crop plants TRZAS,[8]; Dosage 80/ha (Table M),100%
same,damage of crop plants BRSNW,[9]; Dosage 80/ha (Table M),100%
same,damage of crop plants ORYZA,[10]; Dosage 80/ha (Table M),100%
